Data on two compounds can be found in patent US4931429A, “α-aminoacyl β-aminoacyl aminodiols as anti-hypertensive agents” (G. D. Searle & Co., priority 1987, dated 1990).

The test system of one assay is Hog renin. The experiment in a line: hog renin inhibition assay. In kind it is biochemical. The following applies: synthetic tetradecapeptide substrate, pH 7.4, one hour at 37° C., angiotensin I by radioimmunoassay. As to the method:
The hog renin inhibition assay was performed in a manner similar to the human renin assay, with the following modifications. Hog renin was purchased from Sigma Chemical Co. and the synthetic tetradecapeptide substrate was obtained from Peninsula Labs Inc. In a final volume of 0.25 mL 100 mM Tris-acetate buffer at pH 7.4, 0.125m units hog renin, 20 micromolar tetradecapetide, 6 mM disodium EDTA, 3.2 mM phenylmethyl sulfonyl fluoride, 3 mM 8-hydroxyquinoline, 1.2 mg/mL BSA and 0.024 mg/mL neomycin sulfate were incubated for one hour at 37° C. in the presence or absence of renin inhibitors. The amount of angiotensin I produced was determined as for the human renin inhibition assay.

The target of the next assay is T1, Human renin (Homo sapiens, UniProt P00797).
T1 construct: purchased National Institute for Biological Standards, London
T1 sequence (P00797 67-406): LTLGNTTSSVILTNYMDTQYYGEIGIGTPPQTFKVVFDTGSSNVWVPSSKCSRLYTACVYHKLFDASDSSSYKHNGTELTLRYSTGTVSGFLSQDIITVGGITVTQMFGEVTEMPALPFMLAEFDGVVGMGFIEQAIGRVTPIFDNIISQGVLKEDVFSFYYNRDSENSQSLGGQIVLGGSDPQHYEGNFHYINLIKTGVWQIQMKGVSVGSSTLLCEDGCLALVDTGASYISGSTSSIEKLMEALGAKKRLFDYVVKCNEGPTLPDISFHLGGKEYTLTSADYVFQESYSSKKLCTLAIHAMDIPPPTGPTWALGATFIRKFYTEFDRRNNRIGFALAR
The experiment in a line: human renin inhibition test. Format: biochemical. The settings on record: human plasma substrate, pH 7.4, two hours at 37° C., angiotensin I by radioimmunoassay. The method, then: The human renin inhibition test has been previously described in detail in papaioannou, et al. (1985) Clinical and Experimental Hypertension A7(9), 1243-1257. Human renin was obtained from the National Institute for Biological Standards, London. In a total volume of 0.25 mL 100 mM Tris-acetate buffer at pH 7.4, 25 x 10-6 Goldblatt units of renin, 0.05 mL of plasma from human volunteers taking oral contraceptives, 6.0 mM sodium EDTA, 2.4 mM phenylmethyl sulfonyl fluoride, 1.5 mM 8-hydroxyquinoline, 0.4 mg/mL BSA, and 0.024 mg/mL neomycin sulfate were incubated for two hours at 37° C. in the presence or absence of renin inhibitors. The produced angiotensin I was determined by radioimmunoassay (New England Nuclear kit). Compounds of Formula I to be assayed were solubilized in either ethyl alcohol or DMSO and diluted with 100 mM Tris-acetate buffer at pH 7.4 to the appropriate concentration. The final concentration of organic solvent in the reaction mixture was less than 1%. Control incubations at 37° C. were used to correct for effects of organic solvent on renin activity.

Molecules are shown by their SMILES.

Usually IC50 stands for the concentration needed to halve the response being measured. The low end stands for greater potency in that assay, the high end for weaker potency in that assay. Turning to `CC(CNC(=O)[C@H](Cc1ccccc1)NC(=O)OC(C)(C)C)C(=O)N[C@@H](CC1CCCCC1)[C@@H](O)CO` (stereo partly drawn) [Example 8, Boc-L-phenylalaninyl-D,L-α-methyl-β-alaninamide of (2S,3R)-2-amino-1-cylohexyl-3,4-dihydroxybutane], the IC50 was determined as 2100 nM with Hog renin and 2000 nM on Human renin.
The like results for `CC(C)C[C@H](O)[C@H](O)[C@H](CC1CCCCC1)NC(=O)C(C)CNC(=O)[C@H](Cc1ccccc1)NC(=O)OC(C)(C)C` (stereo partly drawn) [Example 9, Boc-L-phenylalaninyl-D,L-α-methyl-β-alaninamide of (2S,3R,4S)-2-amino-1-cyclohexyl-3,4-dihydroxy-6-methylheptane] were, in that order, 12.5 nM and 210 nM.
